Laboratory results: patent publication US20240417404A1, “CRYSTALLINE FORMS OF N-[4-[4-(4-MORPHOLINYL)-7H-PYRROLO[2,3-d]PYRIMIDIN-6-YL]PHENYL]-4-[[3(R)-[(1-OXO-2-PROPEN-1-YL)AMINO]-1-[sequence]]METHYL]-2-PYRIDINECARBOXAMIDE AS IRREVERSIBLE INHIBITORS OF MENIN-MLL INTERACTION” (BIOMEA FUSION, INC., priority 2023, published 2024)
Read-outs that look alike come from different tables or passages of the source.

Columns and labels:
[1] = system: human pancreatic islet beta cells; assay: Beta cell proliferation in human islet microtissues; assay type: cell-based
Procedure: Human islet microtissues were aggregated for 5 days and then released into ultra-low attachment plates. Half of the plates were maintained in standard culture medium (5.5 mM glucose), and half were cultured in high-glucose culture medium (GTX, 8 mM glucose) starting at Day 6, for the duration of the whole experiment. Starting on Day 9 (after 3 days of GTX pre-treatment for the relevant plates), dosing with compounds was initiated, using a Tecan D300e Digital Dispenser. DMSO was normalized by volume across all wells. Media were exchanged and compounds were redosed every 2-3 days throughout the experiment. Compound dosing was randomized; to avoid compound cross-contamination between wells, all medium exchanges were performed using 96-well deep well plates with pipette tip exchange.
FIG. 32 provides human pancreatic islet beta cell proliferation on Day 14 and Day 21. In FIG. 32, A is ATP content; B is proliferating beta cell fraction; and C is beta cell fraction. Upper graphs are standard media, and lower graphs are high glucose media. […]
Individual islet microtissues can be cultured in 96-well culture plates and maintained in the presence of Compound 10, a representative irreversible menin-MLL inhibitor, at the appropriate concentration. […] Following 2 or more weeks of culturing, proliferation of beta cells is monitored via immunofluorescence staining for appropriate markers. […]

[2] = system: KRAS mutated CRC, NSCLC and pancreatic cancer cell lines; assay: Proliferation of KRAS mutated cell lines (CellTiter-Glo, four days); assay type: cell-based, human; details: for GI50: Homo sapiens, Pancreatic cancer cell
Procedure: The inhibitory effect on cell proliferation was investigated in the human pancreas KRAS mutated cell lines MIA PaCa-2, HuP-T4, HPAF-II, human lung KRAS mutated cell line NCI-H358, and human colon KRAS mutated cell lines SW837, SW60, and NCI-H747. […] Cells were grown by adhering to culture flasks, and maintained at 70%-80% confluency.
ATP is present in all metabolically active cells and is considered as a marker for viable cells. […] The cell proliferation assay was performed using a 96-well plate format.
Eight concentrations of test compound were assessed in duplicate for each experimental run. 100% cell proliferation is represented by the untreated cells (0.2% DMSO).
200 μL of cell suspension were added to each well of a 96-well plate.
Cell viability was measured using CellTiter Glo. […] Cell viability was measured using CellTiter Glo.

[3] = system: DHL, THL, and DEL DLBCL cell lines; assay: DLBCL cell line panel proliferation (Cell Titer Glo, four days); assay type: cell-based
Procedure: (§1) Compound A was tested against a THL cell line (VAL), and a DEL cell line (U2932). An expanded panel of DHL cell lines were tested for sensitivity to Compound A. Ex vivo patient samples of THL and MYC-amplified DLBCL were tested with Compound A. Sensitivity of THL and MYC-driven DLBCL in both in vitro and ex vivo models were compared with clinical reversible menin inhibitors. Compound A was tested against a panel of MM cell lines and ex vivo MM patient samples of p53del, 13qdel, and relapsed/refractory cases.
(§2) DLBCL cell line TOLEDO was cultured in the presence of Compound A or clinical reversible menin inhibitors for six and fourteen hours. Menin protein expression was reduced up to 60% at 1 μM by Compound A after fourteen hours compared to clinical reversible inhibitors at <20% at similar concentrations. Menin protein expression was measured by the Wes system and analyzed using the Compass software (automated western blotting, Protein Simple). Signal was normalized to GAPDH and referenced to DMSO control (FIG. 36E). DLBCL and MM cell lines were cultured with Compound A, bortezomib (PS-341), or DMSO for four days and cell proliferation was measured by Cell Titer Glo. Ex vivo studies of DLBCL and MM models were conducted by measurement of cell proliferation (Cell Titer Glo) after six days of treatment with Compound A, PS-341, or DMSO control.

Pfeiffer = assay: DLBCL cell line proliferation (Cell Titer Glo, four days): Pfeiffer; assay type: cell-based; details: GCB
Procedure: as §2

MM1.R = assay: MM cell line proliferation (Cell Titer Glo, four days): MM1.R; assay type: cell-based; details: t(14; 16), KRAS G12A
Procedure: as §2

[4] = system: MM patient-derived bone marrow mononuclear cells (BMMCs); assay: Ex vivo MM patient-derived bone marrow mononuclear cells (Cell Titer Glo, six days); assay type: cell-based; details: Homo sapiens, BMMC; panel of newly diagnosed and R/R ex vivo MM samples, single agent
Procedure: as §1, §2

Compound: C=CC(=O)N[C@@H]1CCCN(Cc2ccnc(C(=O)Nc3ccc(-c4cc5c(N6CCOCC6)ncnc5[nH]4)cc3)c2)C1 [Compound A, N-[4-[4-(4-morpholinyl)-7H-pyrrolo[2,3-d]pyrimidin-6-yl]phenyl]-4-[[3(R)-[(1-oxo-2-propen-1-yl)amino]-1-piperidinyl]methyl]-2-pyridinecarboxamide]
- human pancreatic islet beta cell proliferation (proliferating beta cell fraction) ([1]; Day 14 and Day 21, compared to control): induced human pancreatic islet beta cells substantially compared to control
- beta-cell proliferation ([1]; glucose stress (8 mM glucose) vs standard glucose (5.5 mM)): dose dependent increase in beta-cell proliferation under glucose stress condition, but not under standard glucose conditions
- GI50 ([2]; the 31st table c1, read-out: KRAS G12C GI50 (μM) NSCLC (8)): 0.36 to 0.57 µM
- GI50 ([2]; the 31st table c2, read-out: KRAS G12D GI50 (μM) Pancreatic (1)): 0.43 µM
- GI50 ([2]; the 31st table c3, read-out: KRAS G13D GI50 (μM) CRC (1)): 0.57 µM
- GI50 ([2]; the 31st table c4, read-out: KRAS G12V GI50 (μM) NSCLC (1)): 0.29 µM
- GI50 ([2]; the 31st table c6, read-out: GI50 Summary Tumor Type): 0.42 µM
- GI50 ([2]; the 31st table c7 (second block of heads), read-out: KRAS G12C GI50 (μM) NSCLC (8)): 0.34 µM
- GI50 ([2]; the 31st table c8 (second block of heads), read-out: KRAS G12D GI50 (μM) Pancreatic (1)): 0.37 to 0.57 µM
- GI50 ([2]; the 31st table c9 (second block of heads), read-out: KRAS G13D GI50 (μM) CRC (1)): 0.45 µM
- GI50 ([2]; the 31st table c10 (second block of heads), read-out: KRAS G12V GI50 (μM) NSCLC (1)): 1.6 µM
- growth inhibition of KRAS-mutated cell lines compared to a known KRAS therapeutic ([2]; all cancer cell types tested): significantly greater growth inhibition
- inhibition of growth ([2]; most of fourteen CRC, NSCLC, pancreatic KRAS mutated cell lines, four-day treatment): > 90%
- inhibition of cell viability ([2]; seven of ten KRAS G12C NSCLC cell lines): ≥ 90%
- KRAS G12V GI50 (μM) NSCLC (1) ([2]; the 31st table c10 (second block of heads)): LR (Limited Response (LR) = % growth inhibition <30%)
- cell lethality ([3]; DHL, THL, and DEL DLBCL cell lines): > 90%
- growth inhibition of THL and DEL cell line models ([3]; VAL, U2932): complete growth inhibition
- Average % Max Inhibition by Compound A (Pfeiffer): 99.6%
- Average % Max Inhibition by Compound A (MM1.R): 99.6%
- IC50 [4]: 100 to 300 nM
